Results as given in the NIST ThermoML archive (doi:10.1016/j.jct.2018.10.015).

Experiment: xn = mol fraction of the nth substance listed
Conditions: 101.3 kPa, Liquid; for viscosity: Concentric cylinders viscometry; for mass density: Vibrating tube method

CCCCn1cc[n+](C)c1C.O=S(=O)([N-]S(=O)(=O)C(F)(F)F)C(F)(F)F + COC(=O)OC
Conditions | mass density, 313.15 K [kg/m3] | mass density, 318.15 K [kg/m3] | mass density, 323.15 K [kg/m3] | mass density, 328.15 K [kg/m3] | viscosity, 313.15 K [mPa·s] | viscosity, 318.15 K [mPa·s] | viscosity, 323.15 K [mPa·s] | viscosity, 328.15 K [mPa·s]
x1 = 0.0976 | 1152.2 | 1146.2 | 1140.2 | 1133.9 | 1.343 | 1.25 | 1.165 | 1.091
x1 = 0.1935 | 1220.1 | 1214.5 | 1209 | 1203.6 | 2.405 | 2.214 | 2.046 | 1.904
x1 = 0.299 | 1270.7 | 1265.5 | 1260.3 | 1255.1 | 4.306 | 3.9 | 3.553 | 3.258
x1 = 0.4011 | 1305.6 | 1300.6 | 1295.6 | 1290.5 | 6.95 | 6.184 | 5.543 | 5.017
x1 = 0.4954 | 1330.4 | 1325.5 | 1320.6 | 1315.6 | 10.34 | 9.06 | 8 | 7.129
x1 = 0.5974 | 1351.7 | 1346.9 | 1342.1 | 1337.2 | 15.2 | 13.1 | 11.4 | 10.03
x1 = 0.6988 | 1368.8 | 1364 | 1359.3 | 1354.6 | 21.55 | 18.3 | 15.71 | 13.64
x1 = 0.7987 | 1382.7 | 1378.1 | 1373.4 | 1368.7 | 29.34 | 24.58 | 20.85 | 17.91
x1 = 0.9 | 1394.6 | 1390 | 1385.4 | 1380.8 | 39.06 | 32.32 | 27.09 | 23.04
x1 = 1 | 1404.8 | 1400.2 | 1395.6 | 1391 | 50.56 | 41.38 | 34.32 | 28.91
